This note sets out measurements from patent US7902394B2, “Calcilytic compounds” (GlaxoSmithKline LLC, priority 2006, dated 2011).

One test addresses T1, Human Parathyroid Calcium Receptor (“HuPCaR”) (Homo sapiens, UniProt P41180).
T1 construct: expressed in transfected cells; host or cells: HEK 293 4.0-7 (plasma membrane preparation)
T1 sequence (P41180 20-1078): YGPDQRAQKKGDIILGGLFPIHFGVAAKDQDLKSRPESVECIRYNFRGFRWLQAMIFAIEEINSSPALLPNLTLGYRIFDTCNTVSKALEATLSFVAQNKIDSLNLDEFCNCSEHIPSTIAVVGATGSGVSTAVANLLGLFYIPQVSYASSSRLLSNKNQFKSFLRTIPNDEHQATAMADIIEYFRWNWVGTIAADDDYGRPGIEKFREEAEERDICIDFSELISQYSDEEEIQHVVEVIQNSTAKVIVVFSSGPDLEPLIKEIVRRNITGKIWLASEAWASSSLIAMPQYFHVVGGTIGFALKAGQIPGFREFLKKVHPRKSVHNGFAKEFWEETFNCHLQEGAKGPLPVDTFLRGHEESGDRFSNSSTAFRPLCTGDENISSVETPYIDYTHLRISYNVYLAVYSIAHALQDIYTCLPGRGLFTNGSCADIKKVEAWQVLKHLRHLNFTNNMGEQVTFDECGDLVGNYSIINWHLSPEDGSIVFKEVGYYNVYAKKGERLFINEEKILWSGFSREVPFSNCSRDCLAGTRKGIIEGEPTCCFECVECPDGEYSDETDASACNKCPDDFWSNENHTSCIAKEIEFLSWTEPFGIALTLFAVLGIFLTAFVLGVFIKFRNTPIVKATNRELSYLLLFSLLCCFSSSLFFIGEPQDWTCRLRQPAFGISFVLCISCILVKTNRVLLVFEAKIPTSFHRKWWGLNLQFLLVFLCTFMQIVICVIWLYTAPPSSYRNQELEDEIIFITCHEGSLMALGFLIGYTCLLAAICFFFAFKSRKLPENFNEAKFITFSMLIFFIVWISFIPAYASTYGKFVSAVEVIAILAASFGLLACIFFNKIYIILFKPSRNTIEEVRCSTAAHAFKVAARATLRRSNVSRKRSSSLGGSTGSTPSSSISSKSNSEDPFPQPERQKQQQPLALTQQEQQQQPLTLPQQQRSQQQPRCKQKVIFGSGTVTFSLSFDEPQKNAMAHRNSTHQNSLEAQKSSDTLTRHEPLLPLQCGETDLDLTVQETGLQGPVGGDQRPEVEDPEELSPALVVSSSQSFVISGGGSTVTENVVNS
The test can be described thus: Calcium Receptor Binding Assay (3H ligand displacement, HEK 293 4.0-7 membranes). The following applies: 2 nM 3H compound, 4° C. 30 min, 10 uM was the limit of the assay. Here is the method:
HEK 293 4.0-7 cells stably transfected with the Human Parathyroid Calcium Receptor (“HuPCaR”) were scaled up in T180 tissue culture flasks. Plasma membrane was obtained by polytron homogenization or glass douncing in buffer (50 mM Tris-HCl pH 7.4, 1 mM EDTA, 3 mM MgCl2) in the presence of a protease inhibitor cocktail containing 1 uM Leupeptin, 0.04 uM Pepstatin, and 1 mM PMSF. Aliquoted membrane was snap frozen and stored at −80° C. ^3H labeled compound was radiolabeled to a radiospecific activity of 44 Ci/mmole and was aliquoted and stored in liquid nitrogen for radiochemical stability.
A typical reaction mixture contained 2 nM ^3H compound ((R,R)—N-4′-Methoxy-t-3-3′-methyl-1′-ethylphenyl-1-(1-naphthyl)ethylamine), or ^3H compound (R)—N-[2-Hydroxy-3-(3-chloro-2-cyanophenoxy)propyl]-1,1-dimethyl-2-(4-methoxyphenyl)ethylamine with 4-10 ug membrane in homogenization buffer containing 0.1% gelatin and 10% EtOH in a reaction volume of 0.5 mL. Incubation was performed in 12×75 polyethylene tubes in an ice water bath. To each tube 25 uL of test sample in 100% EtOH was added, followed by 400 uL of cold incubation buffer, and 25 uL of 40 nM ^3H-compound in 100% EtOH for a final concentration of 2 nM. The binding reaction was initiated by the addition of 50 uL of 80-200 ug/mL HEK 293 4.0-7 membrane diluted in incubation buffer, and allowed to incubate at 4° C. for 30 min. Wash buffer was 50 mM Tris-HCl containing 0.1% PEI. Nonspecific binding was determined by the addition of 100-fold excess of unlabeled homologous ligand, and was generally 20% of total binding. The binding reaction was terminated by rapid filtration onto 1% PEI pretreated GF/C filters using a Brandel Harvestor. Filters were placed in scintillation fluid and radioactivity assessed by liquid scintillation counting.
With `COc1ccc(CCC(C)(C)NC[C@@H](O)c2cc(CCC(=O)O)cc(F)c2F)cc1` [Example 17, 3-{3-[(1S)-2-([1,1-dimethyl-3-[4-(methyloxy)phenyl]propyl}amino)-1-hydroxyethyl]-4,5-difluorophenyl]propanoic acid], the concentration for half-maximal inhibition (IC50) is greater than 10 µM.
Still for that read-out and setting: in the case of `CC(C)(Cc1ccccc1)NC[C@@H](O)c1cc(CCC(=O)O)cc(F)c1F` [Example 13, 3-(3-{(1S)-2-[(1,1-dimethyl-2-phenylethyl)amino]-1-hydroxyethyl}-4,5-difluorophenyl)propanoic acid] it was greater than 10 µM; in that of `CC(C)(Cc1cccs1)NC[C@@H](O)c1cc(CCC(=O)O)cc(F)c1F` [Example 21, 3-[3-((1S)-2-{[1,1-dimethyl-2-(2-thienyl)ethyl]amino}-1-hydroxyethyl)-4,5-difluorophenyl]propanoic acid], greater than 10 µM.

Another test has as its target T2, human calcium receptor (Homo sapiens, UniProt P41180).
T2 construct: expressed in transfected cells; host or cells: HEK 293 4.0-7
T2 sequence (P41180 20-1078): T1 sequence (P41180 20-1078)
Description: Calcium Receptor Inhibitor Assay (block of intracellular Ca2+ increase elicited by extracellular Ca2+, fluo-3). The following applies: HEK 293 4.0-7 cells stably expressing the human calcium receptor; 10 uM was the limit of the assay; read-out: IC50 for blocking increases of intracellular Ca2+ elicited by extracellular Ca2+. Format: cell-based. Here is the method: Calcilytic activity was measured by determining the IC50 of the test compound for blocking increases of intracellular Ca^2+ elicited by extracellular Ca^2+ in HEK 293 4.0-7 cells stably expressing the human calcium receptor. HEK 293 4.0-7 cells were constructed as described by Rogers et al., J. Bone Miner. Res. 10 Suppl. 1:S483, 1995 (hereby incorporated by reference to the extent required to conduct the present assay). Intracellular Ca^2+ increases were elicited by increasing extracellular Ca^2+ from 1 to 1.75 mM. Intracellular Ca^2+ was measured using fluo-3, a fluorescent calcium indicator.
Cells were maintained in T-150 flasks in selection media (DMEM supplemented with 10% fetal bovine serum and 200 ug/mL hygromycin B), under 5% CO2:95% air at 37° C. and were grown up to 90% confluency. The medium was decanted and the cell monolayer was washed twice with phosphate-buffered saline (PBS) kept at 37° C. After the second wash, 6 mL of 0.02% EDTA in PBS was added and incubated for 4 minutes at 37° C. Following the incubation, cells were dispersed by gentle agitation. Cells from 2 or 3 flasks were pooled and pelleted (100×g). The cellular pellet was resuspended in 10-15 mL of SPF-PCB+ and pelleted again by centrifugation. This washing was done twice.
Sulfate- and phosphate-free parathyroid cell buffer (SPF-PCB) contained 20 mM Na-Hepes, pH 7.4, 126 mM NaCl, 5 mM KCl, and 1 mM MgCl2. SPF-PCB was made up and stored at 4° C. On the day of use, SPF-PCB was supplemented with 1 mg/mL of D-glucose and 1 mM CaCl2 and then split into two fractions. To one fraction, bovine serum albumin (BSA; fraction V, ICN) was added at 5 mg/mL (SPF-PCB+). This buffer was used for washing, loading and maintaining the cells. The BSA-free fraction was used for diluting the cells in the cuvette for measurements of fluorescence.
The pellet was resuspended in 10 mL of SPF-PCB+ containing 2.2 uM fluo-3 (Molecular Probes) and incubated at room temperature for 35 minutes. Following the incubation period, the cells were pelleted by centrifugation. The resulting pellet was washed with SPF-PCB+. After this washing, cells were resuspended in SPF-PCB+ at a density of 1-2×10^6 cells/mL.
For recording fluorescent signals, 300 uL of cell suspension were diluted in 1.2 mL of SPF buffer containing 1 mM CaCl2 and 1 mg/mL of D-glucose. Measurements of fluorescence were performed at 37° C. with constant stirring using a spectrofluorimeter. Excitation and emission wavelengths were measured at 485 and 535 nm, respectively. To calibrate fluorescence signals, digitonin (5 mg/mL in ethanol) was added to obtain Fmax, and the apparent Fmin was determined by adding Tris-EGTA (2.5 M Tris-Base, 0.3 M EGTA). The concentration of intracellular calcium was calculated using the following equation: Intracellular calcium=[…]; where Kd=400 nM.
To determine the potential calcilytic activity of test compounds, cells were incubated with test compound (or vehicle as a control) for 90 seconds before increasing the concentration of extracellular Ca^2+ from 1 to 2 mM. Calcilytic compounds were detected by their ability to block, in a concentration-dependent manner, increases in the concentration of intracellular Ca^2+ elicited by extracellular Ca^2+.
Regarding `CSc1ccc(CC(C)(C)NC[C@@H](O)c2cc(CCC(=O)O)cc(F)c2F)cc1` [Example 19, 3-{3-[(1S)-2-({1,1-dimethyl-2-[4-(methylthio)phenyl]ethyl}amino)-1-hydroxyethyl]-4,5-difluorophenyl}propanoic acid], the IC50 is greater than 10 µM.
Still for that read-out and setting: with `COc1ccc(CCC(C)(C)NC[C@@H](O)c2cc(CCC(=O)O)cc(F)c2F)cc1` [Example 17, 3-{3-[(1S)-2-([1,1-dimethyl-3-[4-(methyloxy)phenyl]propyl}amino)-1-hydroxyethyl]-4,5-difluorophenyl]propanoic acid] the figure was greater than 10 µM.
The same measure, in the same setting: in the case of `CC(C)(Cc1ccc(Br)cc1)NC[C@@H](O)c1cc(CCC(=O)O)cc(F)c1F` [Example 23, 3-[3-((1S)-2-{[2-(4-bromophenyl)-1,1-dimethylethyl]amino}-1-hydroxyethyl)-4,5-difluorophenyl]propanoic acid] it was greater than 10 µM.
Still for that read-out and setting: with `Cc1ccc(CC(C)(C)NC[C@@H](O)c2cc(CCC(=O)O)cc(F)c2F)s1` [Example 16, 3-[3-((1S)-2-{[1,1-dimethyl-2-(5-methyl-2-thienyl)ethyl]amino}-1-hydroxyethyl)-4,5-difluorophenyl]propanoic acid] the figure was greater than 10 µM; with `CC(C)(Cc1ccc(Cl)s1)NC[C@@H](O)c1cc(CCC(=O)O)cc(F)c1F` [Example 24, 3-[3-((1S)-2-{[2-(5-chloro-2-thienyl)-1,1-dimethylethyl]amino}-1-hydroxyethyl)-4,5-difluorophenyl]propanoic acid], greater than 10 µM; with `Cc1ccc(CC(C)(C)NC[C@@H](O)c2cc(CCC(=O)O)cc(F)c2F)cc1F` [Example 18, 3-[3,4-difluoro-5-((1S)-2-{[2-(3-fluoro-4-methylphenyl)-1,1-dimethylethyl]amino}-1-hydroxyethyl)phenyl]propanoic acid], greater than 10 µM.
Regarding `CC(C)(CCc1ccccc1)NC[C@@H](O)c1cc(CCC(=O)O)cc(F)c1F` [Example 22, 3-(3-{(1S)-2-[(1,1-dimethyl-3-phenylpropyl)amino]-1-hydroxyethyl}-4,5-difluorophenyl)propanoic acid], the IC50 was greater than 10 µM.
For `CC(C)(Cc1ccc(C(C)(C)C)cc1)NC[C@@H](O)c1cc(CCC(=O)O)cc(F)c1F` [Example 20, 3-{3-[(1S)-2-({2-[4-(1,1-dimethylethyl)phenyl]-1,1-dimethylethyl}amino)-1-hydroxyethyl]-4,5-difluorophenyl}propanoic acid], the IC50 is greater than 10 µM.
Take `CC(C)(Cc1cccs1)NC[C@@H](O)c1cc(CCC(=O)O)cc(F)c1F` [Example 21, 3-[3-((1S)-2-{[1,1-dimethyl-2-(2-thienyl)ethyl]amino}-1-hydroxyethyl)-4,5-difluorophenyl]propanoic acid]: the IC50 is greater than 10 µM.

One may read the IC50 as the concentration at which inhibition is half-maximal.
